Where two headings read alike, the source gives them in different places.
Experiments:
[1] = Photophysical properties in solution and aggregate states (AIE effect); type: physicochemical; conditions: for Emission maximum wavelength (λem): excitation 350 nm
amyloid-β-peptide = amyloid-β-peptide (Homo sapiens, UniProt P05067); assay: FL with amyloid-β-peptide before and after aging; conditions: 0.1 mg/mL amyloid-β-peptide, λex 350 nm
[2] = test system: heparin, apoferritin, cellulose, papain, native and fibrillar insulin; assay: FL specificity against other protein monomers; conditions: protein 1.0 mg/mL
[3] = target: Bovine serum albumin (BSA) (Bos taurus, UniProt P02769); assay: Fluorimetric titration of BSA to polyenes; type: binding; conditions: for ΦE (quantum yield), bind / λex (emission maximum), bind: BSA solution of TPE-OH•Na2 or TPE-SO3 in aqueous phosphate buffer pH 7.0; for λex (emission maximum), bind: excitation 350 nm
Bovine serum albumin (BSA), sequence (P02769 25-607): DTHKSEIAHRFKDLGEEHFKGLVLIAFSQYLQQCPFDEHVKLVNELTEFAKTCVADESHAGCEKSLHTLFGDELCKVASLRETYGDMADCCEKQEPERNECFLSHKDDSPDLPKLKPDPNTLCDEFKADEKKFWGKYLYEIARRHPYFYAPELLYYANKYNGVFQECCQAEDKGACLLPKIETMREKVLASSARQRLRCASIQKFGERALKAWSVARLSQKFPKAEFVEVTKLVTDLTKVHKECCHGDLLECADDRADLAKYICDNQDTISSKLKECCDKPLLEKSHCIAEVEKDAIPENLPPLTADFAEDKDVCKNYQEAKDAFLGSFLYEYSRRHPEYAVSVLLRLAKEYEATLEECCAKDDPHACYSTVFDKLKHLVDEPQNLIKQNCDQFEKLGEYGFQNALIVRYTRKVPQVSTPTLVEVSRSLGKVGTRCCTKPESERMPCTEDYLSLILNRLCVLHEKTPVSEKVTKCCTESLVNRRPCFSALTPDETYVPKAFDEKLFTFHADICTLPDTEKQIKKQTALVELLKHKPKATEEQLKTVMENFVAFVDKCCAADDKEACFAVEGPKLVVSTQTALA
Experimental: (§1) Fluorimetric titration of biomacromolecules to polyenes Bovine serum albumin (BSA) and calf thymus DNA (ctDNA) were selected as model proteins and DNA. BSA was dissolved in a pH 7.0 phosphate buffer solution (1.0 mg/ml). DNA was dissolved in deionized water (1.0 mg/ml) and filtered through a 0.45 μm filter. The actual concentration (in nucleic base) was determined by UV photometry using the extinction coefficient ε260=6600 M^−1 cm^−1.
(§2) Stock solutions of polyenes were 5×10^−4 M in water. Fluorescence titration was carried out by sequentially adding 100 μl aliquots of DNA or BSA solutions to a 100 μl stock solution of polyenes, followed by adding an aqueous phosphate buffer (10 mM, pH 7) to acquire a 10.00 ml solution. The mixtures were stirred for half an hour prior to taking their spectra.
Complexation of the water-soluble AIE TPEs 3 and 4 with calf thymus DNA (ctDNA) and bovine serum albumin (BSA) were investigated by spectrometric titrations in aqueous phosphate buffer (pH=7.0) at 25 C. Stock solutions of TPEs 3 and 4 (0.25 mM) were prepared.

lysozyme = assay: FL during lysozyme fibril formation; conditions: 10, 50 and 100 μM, over 4 days
[4] = test system: ctDNA/RNA from torula yeast/BSA; assay: Fluorescence increments / binding isotherm with ctDNA, RNA and BSA; conditions: 10 μg/ml ctDNA or RNA, dye 5 μM
Experimental: FIG. 8 illustrates increments of fluorescence of TPE-C2N^+ (8), N+C2-TPE-C2N^+ (9), TPE-C4N^+ (10), N+C4-TPE-C4N^+ (11) when binding with 10 μg/ml ctDNA/10 μg/ml RNA diethylaminoethanol (DEAE) salt from torula yeast/10 μg/ml RNA from torula yeast in buffer solution pH=7. Concentration of dyes: 5 μM; excitation wavelength: 350 nm. The four cationic TPE derivatives display larger FL enhancement in the presence of DNA than that of RNA.
FIG. 9 illustrates the binding isotherm of N+C2-TPE-C2N^+ (5 μM) to ctDNA/RNA from torula yeast/BSA (plot of the fluorescence intensity at 470 nm for ctDNA/RNA, and at 467 nm for BSA) in aqueous phosphate buffer (pH=7.0).

[5] = Photophysical properties in solution and aggregate states (AIE effect); type: physicochemical; conditions: for Fluorescence quantum yield (ΦF), molecularly dissolved: AN solution / AN-water mixtures with low water fraction; for Fluorescence quantum yield (ΦF), aggregated: AN/water mixture with 99% water
Source text: Changes in the φF values of TBEPE in the AN/water mixtures with different water contents further confirm its AIE nature. […] Afterward the φF value starts to increase swiftly. In the AN/water mixtures with lower water fractions, TBEPE is genuinely dissolved, while in the aqueous mixtures with higher water fractions (>60%), the dye molecules cluster together due to the deterioration in the solvating power of the mixture. When the water fraction is increased to 99 vol %, the aφF value is increased to −18%, which is ˜35-fold higher than that in the pure AN solvent. The absolute φF values of the aggregates should be much higher than the relative ones given in FIG. 26A, if the light scattering caused by the Mie effect of the nanoaggregatcs is taken into consideration. […]
Dilute solutions of TPEs 1 and 2 in AN are practically non-luminescent. Addition of non-solvent water into the AN solutions can turn on the emissions of the dyes. From the molecular solution in AN to the aggregate suspension in an AN-water mixture (1:99 by volume), the fluorescent intensity of TPE 1 at 476 nm is increased by −240 fold (FIG. 11A). Its absorption maximum shifts from 310 nm in the solution to 330 nm in the suspension. The excitation maximum of TPE 1 locates at 330 nm, coinciding well with its absorption maximum. […] Evidently, the emission of TPE 1 is induced by the aggregate formation, or in other words, TPE 1 is AIE-active.
The ΦF value of TPE 1 starts to increase when the water fraction is increased to ˜50%, at which the solvating power of the mixture is decreased to such an extent that the dye molecules begin to aggregate. The ΦF value reaches ˜20% at a water content of 99%, which is ˜40-fold higher than that of its AN solution. […] Their emissions in the mixtures remain as faint as those in the water solutions.

Solubility = type: physicochemical
calf thymus DNA (ctDNA) = assay: Fluorimetric titration of ctDNA to polyenes; type: binding; conditions: for Relative affinity to ctDNA versus BSA: phosphate buffer pH 7, dye 2.5 μM
Experimental: as §1, §2
Complexation of the water-soluble AIE TPEs 3 and 4 with calf thymus DNA (ctDNA) and bovine serum albumin (BSA) were investigated by spectrometric titrations in aqueous phosphate buffer (pH=7.0) at 25 C. Stock solutions of TPEs 3 and 4 (0.25 mM) were prepared. The mixture of 100 μl stock solution of 3 with 9.9 ml buffer emits faintly at 395 nm with a side band at 462 nm. Its absorption maximum locates at 311 nm, with a molar absorptivity of 12400M^−1 cm^−1. Upon addition of the DNA, FL intensity of TPE 3 increased by 5.4 fold. Meanwhile its emission maximum shifted to ˜462 nm, giving a Stokes shift as large as 134 nm. In the DNA concentration range of 0-100 μg/ml^−1, the plot of the FL intensity (1) at 462 nm as a function of DNA concentration (c) is a linear line with a correlation coefficient of 0.996. Addition of BSA to a buffer solution of TPE 3 induced a similar effect. The linear range of the I/IO−1 vs. c plot in this case is 0-50 μg/ml^−1. The excitation maximums of the solutions of TPE3 containing BSA and ctDNA both locate at 328 nm.

HG21 DNA = assay: CD spectra: G-quadruplex induction by TPE derivatives; type: biochemical; conditions: 9 μM DNA, 4.5 μM TPE derivative, Tris-HCl pH 7.5, 25 °C
Experimental: [TPE]=4.5 μM; [HG21]=9 μM and [K^+]=0.5 M.
CD spectral profiles of 9 μM DNA in 5 mM Tris-HCl buffer solutions (pH 7.5) incubated under 25° C. with four different TPE derivatives at 4.5 μM or with 0.5M K^+ ions are studied (FIG. 77). TPE derivatives 1-4 are TTAPE (Example 6), TPE-2 (chemical structure is not shown herein), TPE-3 (chemical structure is not shown herein) and TPE-C2N+ (Example 3), respectively. […] On the other hand, DNA incubated with TTAPE or the known quadruplex inducer; K^+ ions have very similar spectral profiles, while the ellipticities of DNA/TTAPE are somehow weaker than DNA/K^+.

HSA = HSA (Homo sapiens, UniProt P02768); conditions: cited from earlier work
HSA, sequence (P02768 25-609): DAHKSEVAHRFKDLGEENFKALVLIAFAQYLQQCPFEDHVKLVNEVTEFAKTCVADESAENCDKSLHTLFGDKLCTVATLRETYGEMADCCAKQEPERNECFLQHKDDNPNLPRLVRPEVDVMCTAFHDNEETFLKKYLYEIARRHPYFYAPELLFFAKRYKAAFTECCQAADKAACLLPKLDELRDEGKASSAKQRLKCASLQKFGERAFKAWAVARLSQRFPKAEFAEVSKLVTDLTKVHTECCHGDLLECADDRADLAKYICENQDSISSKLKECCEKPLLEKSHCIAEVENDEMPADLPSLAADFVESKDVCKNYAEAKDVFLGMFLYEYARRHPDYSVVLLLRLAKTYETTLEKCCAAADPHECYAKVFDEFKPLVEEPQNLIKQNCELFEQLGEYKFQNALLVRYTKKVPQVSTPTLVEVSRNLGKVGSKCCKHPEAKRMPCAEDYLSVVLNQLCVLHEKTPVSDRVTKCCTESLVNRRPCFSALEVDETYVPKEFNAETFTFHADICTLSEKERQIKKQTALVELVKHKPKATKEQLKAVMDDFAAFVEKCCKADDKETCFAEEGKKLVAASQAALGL

[6] = aggregate: 99% water/AN for TPE-OMe and TPE-OH, 99% AN/water for TPE-SO3
[7] = solution: acetonitrile for TPE-OMe and TPE-OH (10 μM), water for TPE-SO3 (5 μM)

amyloid-β-peptide, sequence (P05067 672-711 limits assumed): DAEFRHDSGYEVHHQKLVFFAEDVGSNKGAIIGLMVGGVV

With “1,2-Diphenyl-1,2-bis(4,4′-(3-sulfonato)propoxyl)phenylethylene [TPE-SO3]” the “ΦE (quantum yield), aggr” value [1, 6] was 17.47%, the “λab (absorption maximum), aggr” value [1, 6] was 320 nm and the “Emission maximum wavelength (λem)” value [1, 6] was 442 nm. For the same compound, the “ΦE (quantum yield), soln” value [1, 7] was 0.37%, the “λab (absorption maximum), soln” value [1, 7] was 312 nm and the “Emission maximum wavelength (λem)” value [1, 7] was 398 nm. The “Emission on formation of amyloid-β-peptide fibrils (after aging)” value (amyloid-β-peptide) was “increases dramatically”, the “FL with fibrillar insulin” value [2] was “significantly higher than other cellular proteins tested” and the “FL with heparin, apoferritin and cellulose” value [2] was “comparable to TPE-SO3 solution alone”. For the same compound, the FL with papain [2] was “comparable to native insulin monomer”, the “ΦE (quantum yield), bind” value [3] was 58.2% and the “λex (emission maximum), bind” value [3] was 472 nm. For the same compound, the “FL intensity increase upon binding with BSA” value ([3]; aqueous phosphate buffer, 472 nm) was “up to 240 times” and the “Fluorescence profile during lysozyme fibril formation” value (lysozyme) was “produces fluorescence profile corresponding to lysozyme fibrillation”.
In the case of `CC[N+](CC)(CC)CCCCOc1ccc(C(=C(c2ccc(OCCCC[N+](CC)(CC)CC)cc2)c2ccc(OCCCC[N+](CC)(CC)CC)cc2)c2ccc(OCCCC[N+](CC)(CC)CC)cc2)cc1.[Br-].[Br-].[Br-].[Br-]` [N+C4-TPE-C4N^+, N,N′,N″,N′″-[1,2-Tetrakis(1,4-phenoxybutyl)vinyl)tetrakis(triethylammonium bromide)], the “Variety of FL in presence of DNA and RNA compared with TPE-C2N+ and TPE-C4N+” value [4] is reported as “much larger variety of FL”.
For `BrCCOc1ccc(C(=C(c2ccc(OCCBr)cc2)c2ccc(OCCBr)cc2)c2ccc(OCCBr)cc2)cc1` [TBEPE, 1,1,2,2-tetrakis[4-(2-bromoethoxy}phenyl]ethene], the “Increase of ΦF at 99% water versus AN solution” value [5] was about 35 fold, the Fluorescence quantum yield (ΦF), molecularly dissolved [5] was 0.5% and the Fluorescence quantum yield (ΦF), aggregated [5] was 18%. The Solubility in water (Solubility) was “totally insoluble in water”.
For `BrCCOc1ccc(C(=C(c2ccccc2)c2ccc(OCCBr)cc2)c2ccccc2)cc1` [TPE 1, 1,2-Bis[4-(2-bromoethoxy)phenyl]-1,2-diphenylethene], the Increase of fluorescent intensity at 476 nm, AN solution to AN-water (1:99) suspension [5] was 240 fold, the “Increase of ΦF at 99% water versus AN solution” value [5] was about 40 fold and the “Fluorescence quantum yield (ΦF), molecularly dissolved” value [5] was about 0.5%. For the same compound, the “Fluorescence quantum yield (ΦF), aggregated” value [5] was about 20% and the Solubility in water (Solubility) was “insoluble in water”.
For `CC[N+](CC)(CC)CCOc1ccc(/C(=C(\c2ccccc2)c2ccc(OCC[N+](CC)(CC)CC)cc2)c2ccccc2)cc1.[Br-].[Br-]` [TPE-C2N^+, N,N′-[1,2-Diphenyl-1,2-bis(1,4-phenoxyethyl)vinyl]bis(triethylammonium bromide)], the “Linear range of FL intensity vs DNA concentration” value (calf thymus DNA (ctDNA)) was 0-100 μg/ml^−1, the “FL intensity increase upon addition of DNA” value (calf thymus DNA (ctDNA); phosphate buffer pH 7.0, 25 C) was 5.4 fold and the “Relative affinity to ctDNA versus BSA” value (calf thymus DNA (ctDNA)) was “better affinity to ctDNA than BSA”. For the same compound, the “Linear range of FL intensity vs BSA concentration” value [3] was 0-50 μg/ml^−1, the “G-quadruplex induction (CD spectral profile)” value (HG21 DNA) was “spectral profile comparable to the negative control” and the Solubility in water (Solubility) was “soluble in water”.
In the case of `CC[N+](CC)(CC)CCCCOc1ccc(/C(=C(\c2ccccc2)c2ccc(OCCCC[N+](CC)(CC)CC)cc2)c2ccccc2)cc1.[Br-].[Br-]` [TPE-C4N^+, N,N′-[1,2-Diphenyl-1,2-bis(1,4-phenoxybutyl)vinyl]bis(triethylammonium bromide)], the “Linear range of FL intensity vs DNA concentration” value (calf thymus DNA (ctDNA)) is reported as 0-20 μg/ml^−1, the I/Io (calf thymus DNA (ctDNA); 300 μg/ml ct DNA added) is reported as 16.3 and the “Relative affinity to ctDNA versus BSA” value (calf thymus DNA (ctDNA)) is reported as “gives the opposite result”. The “Linear range of FL intensity vs BSA concentration” value [3] was 0-40 μg/ml^−1, the I/Io ([3]; 500 μg/ml BSA added) was 23.8 and the Solubility in water (Solubility) was “soluble in water”.
With `O=C(O)c1ccc(/C(=C(\c2ccccc2)c2ccc(C(=O)O)cc2)c2ccccc2)cc1` [TPE-COOH, 4,4′-(1,2-diphenylvinyl)di(phenylcarboxylic acid)] the Solubility in water (Solubility) was “insoluble”.
With `Oc1ccc(/C(=C(\c2ccccc2)c2ccc(O)cc2)c2ccccc2)cc1` [TPE-OH, 1,2-Bis(4-hydroxyphenyl)-1,2-diphenylethylene] the “ΦE (quantum yield), aggr” value [1, 6] was 8.90%, the “λab (absorption maximum), aggr” value [1, 6] was 316 nm and the “Emission maximum wavelength (λem)” value [1, 6] was 439 nm. The “ΦE (quantum yield), soln” value [1, 7] was 0.57%, the “λab (absorption maximum), soln” value [1, 7] was 312 nm and the “Emission maximum wavelength (λem)” value [1, 7] was 393 nm. For the same compound, the “ΦE (quantum yield), bind” value [3] was 35.7%, the “λex (emission maximum), bind” value [3] was 467 nm and the “Linear range of FL intensity vs BSA concentration” value ([3]; aqueous phosphate buffer pH 7.0) was 0 to 10 µg/mL.
With `COc1ccc(C(=C(c2ccccc2)c2ccc(OC)cc2)c2ccccc2)cc1` [TPE-OMe, 1,2-Bis(4-methoxyphenyl)-1,2diphenylethene] the “ΦE (quantum yield), aggr” value [1, 6] was 15.30%, the “λab (absorption maximum), aggr” value [1, 6] was 330 nm and the “Emission maximum wavelength (λem)” value [1, 6] was 477 nm. For the same compound, the “ΦE (quantum yield), soln” value [1, 7] was 0.11%, the “λab (absorption maximum), soln” value [1, 7] was 311 nm and the “Emission maximum wavelength (λem)” value [1, 7] was 394 nm.
For Coomassie Brilliant Blue, the “Staining reaction (soaking) time” value (HSA) is given as “more than 6 hours”.
